This note sets out measurements from patent US11110195B2, “Esculentin 1a derivatives and uses thereof” (University of Houston System, priority 2013, dated 2021).

Residues, ends and D or L forms follow the SMILES beside them. Some results are limits rather than exact numbers.

In experiment [1] the test system is P. aeruginosa ATCC 19660. In words: Bactericidal activity in the presence of basal human tears. In kind it is cell-based, Pseudomonas aeruginosa. The settings on record: 10 μM peptide, within 30 minutes, 70% (v/v) basal tears. The protocol:
(§1) FIGS. 2A-2B show the effects of human basal tears on the bactericidal activity of Esc-1a(1-21)NH2 against P. aeruginosa ATCC 27853 (FIG. 2A) and ATCC 19660 (FIG. 2B). Bacterial cells were incubated with the peptide in the presence of different concentrations of tears collected from eighteen consenting adult volunteers with normal ocular surface and pooled. Aliquots were withdrawn for cell counting at different time intervals. Mean data (n=3), expressed as the percentage of bacteria killed by the peptide are shown. *Indicates significant difference, p<0.05.
(§2) 2×10^6 CFU/ml P. aeruginosa (ATCC 27853 or ATCC 19660) were incubated with 1-20 μM Esc-1a(1-21)NH2 in the presence of 50% or 70% v/v tears and aliquots withdrawn, plated and counted after 30, 90 and 120 minutes (n=3).

Experiment [2] has as its system P. aeruginosa ATCC 27853. The description is as above. The settings on record: for percentage of bacteria killed: 20 μM peptide, 90 minutes. In kind it is cell-based, Pseudomonas aeruginosa. Here is the method:
as §1, §2

The test system of experiment [3] is Pseudomonas aeruginosa ATCC 19660 induced keratitis. In words: Clinical grading of Pseudomonas keratitis in mice. In kind it is in vivo, C57BL/6 mice. The settings on record: scale 0-4. The protocol:
C57BL/6 mice were infected in one eye with P. aeruginosa ATCC 19660 and treated with 40 μM Esc-1a(1-21)NH2 or vehicle control (PBS). In some animals (Pre-trt group) treatment with Esc-1a(1-21)NH2 was initiated 24 hrs prior to infection. […] There was no significant difference between the Esc-1a(1-21)NH2 pretreatment group and when treatment was begun after infection.
To determine a clinical score, neutrophil infiltration by myeloperoxidase assay (MPO assay) and viable bacterial cell counts in infected and control corneas of C57BL/6 mice with Pseudomonas aeruginosa ATCC 19660 keratitis following pre-treatment and post-infection treatment with Esc-1a(1-21)NH2 up to 5 days post-infection (PI) the following experiment was performed. In these experiments pre-treatment refers to a group of animals where treatment was initiated 24 hrs before infection then continued after infection.
Images of the uninfected control and infected eye were taken on days 1, 3 and 5 PI using a camera equipped slit lamp biomicroscope. Clinical grading of infection on days 1, 3 and 5 PI was by visualizing through a slit lamp and using an established grading scale (Table 2). A myeloperoxidase assay was used to quantitate the polymorphonuclear cell numbers in the infected and control corneas (data presented in FIG. 6). Viable counts for bacteria were recovered from corneas at day 1, 3 and 5 PI (FIG. 7).
1. IP injections of ketamine and xylazine mixture were given (final dose 100 and 10 mg/kg respectively) to anesthetize the mice.
2. Pre-treatment group-5 μl of peptide (40 μM) was instilled topically onto intact corneas—3 times in 24 h.
3. Day 0—Day of infection: • a. 3×1 mm parallel scratches were made at the center of the right cornea of the mice using a 271/2 gauge needle and 5 μl of P. aeruginosa ATCC19660 bacterial solution (1×10^6 CFU) was pipetted on the wounded cornea. • b. Topically pipetted 5 μl of 40 μM Esc-1a(1-21)NH2 or vehicle (PBS) on the cornea 2-times on Day 0 starting 5 hours after bacterial infection.
4. Day 1 post-infection: • a. Captured images and graded the infection using a slit lamp biomicroscope. • b. Harvested corneas from 2 mice per group, pooled the corneas and processed them to perform the MPO assay. • c. Instilled peptide or vehicle three times/24 hrs (6.30 am, 1.30 pm, 8.30 pm).
5. Repeated the peptide or vehicle treatment 3 times a day for the next 4 days.
6. In addition, captured images, graded the infection and repeated the MPO assay on Day 3 and 5 post-infection.
The mean clinical scores for the Esc-1a(1-21)NH2 treated and PBS vehicle control group at day 1, 3 and 5 PI obtained from 4 separate experiments where the size of inoculum was 1*10^6 CFU/5 μl were plotted (FIG. 5).

The test system of experiment [4] is A. castellani (ATCC 50370) trophozoites. In words: Acanthamoeba viability, ethidium homodimer-1 time lapse microscopy. In kind it is cell-based, Acanthamoeba castellani. Here is the method:
FIGS. 8A-8D show the effect of Esc-1a(1-21)NH2 on the viability of Acanthamoeba castellani. The amoeba were seeded in to chamber slides, then a fluorescent viability dye (ethidium homodimer-1) and 500 μg/ml Esc-1a(1-21)NH2 added. The amoebas were viewed by time lapse microscopy in an environmental chamber for 6 hours. Images are from before peptide addition at time zero in healthy trophozoites (FIG. 8A), then 10 minutes (FIG. 8B), 2 hours (FIG. 8C) and 6 hours (FIG. 8D) post addition of peptide Esc-1a(1-21)NH2. […] Significant amounts of debris accumulated over time indicating rupture of the cells.
1×10^4 A. castellani (ATCC 50370) trophozoites in PYG 712 growth medium were transferred to coverglass chamber slides and allowed to attach overnight. The cells were then incubated with PYG 712 medium containing a 1:100 dilution of ethidium homodimer-1 (EthD-1) for 15 minutes at room temperature. EthD-1 is a cell-impermeant viability indicator dye that is taken up by cells with a compromised plasma membrane and fluoresces red/orange when bound to DNA. Serial brightfield and fluorescence images were taken using a DeltaVision Spectris Core fluorescence microscope every 3 minutes for 30 minutes to visualize cellular health prior to addition of Esc-1a(1-21)NH2. The medium was then replaced with 200 μl growth media containing 125, 250 or 500 μg/ml Esc-1a(1-21)NH2 and 1:100 diluted ethidium homodimer-1. Brightfield and fluorescence images were taken every 3 minutes for another 6 hours. Serial images were compiled together using Softworx software (Applied Precision) to generate time-lapse videos.

With `CC[C@H](C)[C@H](NC(=O)CN)C(=O)N[C@@H](Cc1ccccc1)C(=O)N[C@@H](CO)C(=O)N[C@@H](CCCCN)C(=O)N[C@@H](CC(C)C)C(=O)N[C@@H](C)C(=O)NCC(=O)N[C@@H](CCCCN)C(=O)N[C@@H](CCCCN)C(=O)N[C@H](C(=O)N[C@@H](CCCCN)C(=O)N[C@@H](CC(N)=O)C(=O)N[C@@H](CC(C)C)C(=O)N[C@@H](CC(C)C)C(=O)N[C@H](C(=O)N[C@@H](CO)C(=O)NCC(=O)N[C@@H](CC(C)C)C(=O)N[C@@H](CCCCN)C(=O)NCC(N)=O)[C@@H](C)CC)[C@@H](C)CC` [Esc-1a(1-21)NH2] (H-GIFSKLAGKKIKNLLISGLKG-NH2; N-terminus assumed), the killing of bacteria entry in experiment [1] is “complete killing”. In addition, the “percentage of bacteria killed” value stood at 100% in experiment [2] (50% v/v basal tears) and 70% in experiment [2] (70% v/v basal tears). Also, the “retention of activity in basal tears” value in experiment [2] (1-20 μM peptide, 50% or 70% v/v basal tears) was “the majority of Esc-1a(1-21)NH2 activity was retained”. In addition, the mean clinical score is listed as 1.37±0.07 in experiment [3] (pre-treated (40 μM topical from 24 h before infection), day 1 PI); 2.29±0.17 in experiment [3] (pre-treated, day 3 PI); 2.86±0.20 in experiment [3] (pre-treated, day 5 PI); 1.38±0.22 in experiment [3] (treated after infection (40 μM topical), day 1 PI); 2.36±0.24 in experiment [3] (treated after infection, day 3 PI); 2.89±0.26 in experiment [3] (treated after infection, day 5 PI). For the same compound, the “trophozoites stained positively with EthD-1” value is on record as “approximately 67%” in experiment [4] (125 μg/ml, 6 hours); “approximately 82%” in experiment [4] (250 μg/ml, 10 minutes); roughly 100% in experiment [4] (250 μg/ml, 6 hours). Moreover, the “time until orange/red fluorescence (dead/dying cells) detected” value in experiment [4] (500 μg/ml) is no more than 10 min.
